Measurements from US20020137209A1, “Methods of dissociating nongenotropic from genotropic activity of steroid receptors” (priority 2000, published 2002).
Values belong to the compound of their own block, whether it stands above or below them. Ends that are not written are not given here.

Assays:
ERα [1] = target: T1, ERα (Homo sapiens, UniProt P03372); experiment: Etoposide-induced apoptosis in HeLa cells transfected with ERα
T1 sequence (P03372 1-595): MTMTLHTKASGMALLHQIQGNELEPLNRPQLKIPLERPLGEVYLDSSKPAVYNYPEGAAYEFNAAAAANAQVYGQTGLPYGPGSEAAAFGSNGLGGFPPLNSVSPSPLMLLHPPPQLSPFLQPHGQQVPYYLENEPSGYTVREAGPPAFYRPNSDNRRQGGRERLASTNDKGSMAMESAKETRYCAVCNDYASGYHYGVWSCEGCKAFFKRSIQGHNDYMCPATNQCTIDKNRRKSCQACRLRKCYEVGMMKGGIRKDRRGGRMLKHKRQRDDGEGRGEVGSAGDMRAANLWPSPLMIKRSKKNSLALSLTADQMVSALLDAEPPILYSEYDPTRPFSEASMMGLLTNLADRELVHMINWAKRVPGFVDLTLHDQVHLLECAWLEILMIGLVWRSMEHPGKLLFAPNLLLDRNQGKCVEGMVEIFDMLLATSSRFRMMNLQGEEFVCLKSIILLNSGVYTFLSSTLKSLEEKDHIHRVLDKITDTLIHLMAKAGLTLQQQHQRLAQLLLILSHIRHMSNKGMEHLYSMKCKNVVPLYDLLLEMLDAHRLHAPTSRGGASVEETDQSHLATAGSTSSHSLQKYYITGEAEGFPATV

AR = target: T2, AR (Homo sapiens, UniProt P10275); experiment: Etoposide-induced apoptosis in HeLa cells transfected with AR
T2 sequence (P10275 1-920): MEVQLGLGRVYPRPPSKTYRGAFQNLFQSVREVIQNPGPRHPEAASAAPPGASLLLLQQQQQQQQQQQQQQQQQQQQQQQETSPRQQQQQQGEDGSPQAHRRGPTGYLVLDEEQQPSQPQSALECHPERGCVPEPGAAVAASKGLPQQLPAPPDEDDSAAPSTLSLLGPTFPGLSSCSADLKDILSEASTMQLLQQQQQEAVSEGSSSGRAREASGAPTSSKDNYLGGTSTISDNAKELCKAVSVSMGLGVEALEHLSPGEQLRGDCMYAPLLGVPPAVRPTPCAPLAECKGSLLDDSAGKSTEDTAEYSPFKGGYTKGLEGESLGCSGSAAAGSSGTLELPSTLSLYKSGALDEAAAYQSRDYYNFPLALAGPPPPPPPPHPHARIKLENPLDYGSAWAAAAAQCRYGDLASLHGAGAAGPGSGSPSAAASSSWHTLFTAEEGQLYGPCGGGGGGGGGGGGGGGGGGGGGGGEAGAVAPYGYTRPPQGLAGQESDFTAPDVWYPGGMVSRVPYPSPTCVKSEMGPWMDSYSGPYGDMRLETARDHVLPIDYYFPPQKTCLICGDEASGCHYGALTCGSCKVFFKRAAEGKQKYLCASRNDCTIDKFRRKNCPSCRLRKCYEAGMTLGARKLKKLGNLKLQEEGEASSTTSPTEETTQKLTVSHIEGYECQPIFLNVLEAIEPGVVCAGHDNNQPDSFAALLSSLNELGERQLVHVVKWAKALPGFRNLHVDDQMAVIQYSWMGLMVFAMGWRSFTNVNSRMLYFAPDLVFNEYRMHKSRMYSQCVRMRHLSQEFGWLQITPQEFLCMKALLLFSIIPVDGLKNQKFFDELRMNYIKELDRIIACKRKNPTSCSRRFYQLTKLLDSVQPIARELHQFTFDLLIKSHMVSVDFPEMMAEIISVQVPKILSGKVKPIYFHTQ

E domain of the ER = experiment: Etoposide-induced apoptosis in HeLa cells transfected with the E domain of ERα; assay type: cell-based, human
Protocol: (§1) DNA constructs. […] Bio. […] The sequence for peptide αII is […] (SEQ ID NO.: 1). […] (SEQ ID NO.: 3). The sequence for GRIP is […] […] […] (SEQ ID NO.: 4). […] The forward primer contained the restriction site for SalI and the ERα Kozak sequence and the reverse primer contained the BamH1 restriction site. Amplified PCR products were subcloned into the SalI/BamH1 restriction site of pCMV.
(§2) Transient transfections. HeLa cells were plated at 5×10^4/cm^2 and after 16-24 hours were transfected with a total amount of 3 μg of DNA using Lipofectamine (Life Technologies Inc). Following a 4-6 hours of incubation, the transfection mix was replaced with fresh medium containing 10% charcoal-stripped serum and treatments were initiated.

ERK1/2 = experiment: ERK phosphorylation in MLO-Y4 cells (Western blot); assay type: cell-based; conditions: inhibitor 25 min, then 5 min E2 or DHT
Protocol: Western blot analysis. The phosphorylation status of ERK1/2 was analyzed by immunoblotting using a mouse monoclonal antibody recognizing tyrosine phosphorylated ERK1/2, or a rabbit polyclonal antibody recognizing total ERK1/2, followed by incubation with either an anti-mouse or an anti-rabbit antibody conjugated with horseradish peroxidase (Santa Cruz Biotechnology).

[2] = tested on: osteocytic cell line MLO-Y4; experiment: Apoptosis of MLO-Y4 osteocytic cells (trypan blue); assay type: cell-based; conditions: inhibitor 30 min prior to E2 or DHT; etoposide 6 hours
ERβ [3] = target: T3, ERβ (Homo sapiens, UniProt Q92731); experiment: IL-6-luc transcription in HeLa cells transfected with ERβ; assay type: cell-based; parameters: expressed in transfected cells; host or cells: HeLa; conditions: ERβ carrying HeLa cells, 10^−8 M E2
Excerpt: (§3) A. HeLa cells were transiently transfected with the ERα expression vector alone or together with a vector carrying a fusion of the α-II peptide with the GAL4 DNA binding domain driven by the SV40 promoter. In addition, cells were transfected with ERE-luc or IL-6-luc for the transcription studies; or with EGFP-nuc for the apoptosis experiments. […] B. HeLa cells were transfected with ERα or ERβ alone or together with expression vectors carrying 2X293 or 2XF6 peptides. […] C. HeLa cells were transfected with a vector carrying the GRIP peptide alone or together with ERα.
as §1, §2

ERα [4] = target: T1, ERα; experiment: ERE-luc transcription in HeLa cells transfected with ERα; assay type: cell-based; parameters: expression vectors encoding the full length ERα or its E domain; expressed in transfected cells; host or cells: HeLa; conditions: ERα carrying HeLa cells, 10^−8 M E2
Excerpt: as §3, §1, §2

ERβ [5] = target: T3, ERβ; experiment: Etoposide-induced apoptosis in HeLa cells transfected with ERβ; conditions: peptide co-transfected, 10^−8 M E2
ERα [6] = target: T1, ERα; experiment: IL-6-luc transcription in HeLa cells transfected with ERα; assay type: cell-based; parameters: expression vectors encoding the full length ERα or its E domain; expressed in transfected cells; host or cells: HeLa; conditions: ERα carrying HeLa cells, 10^−8 M E2
Excerpt: as §3, §1, §2

ERβ [7] = target: T3, ERβ; experiment: ERE-luc transcription in HeLa cells transfected with ERβ; assay type: cell-based; parameters: expressed in transfected cells; host or cells: HeLa; conditions: ERβ carrying HeLa cells, 10^−8 M E2
Excerpt: as §3, §1, §2

[8] = tested on: calvaria-derived murine osteoblastic cells; experiment: Apoptosis of calvaria-derived osteoblastic cells (trypan blue); conditions: etoposide-induced apoptosis
ERα [9] = target: T1, ERα; experiment: C3-luc transcription in HeLa cells transfected with ERα; assay type: cell-based; parameters: expression vectors encoding the full length ERα or its E domain; expressed in transfected cells; host or cells: HeLa; conditions: HeLa with C3-luc and ERα
Protocol: A. For C3-mediated transcription, HeLa cells were transfected with C3-luc and ERα, and were treated with the indicated concentrations of an estren or a pyrazole. Bars represent the mean±SD of the relative luciferase units (RLU) normalized for β-galactosidase activity. p<0.05 versus cells transfected with empty vector (ev), by ANOVA. The anti-apoptotic activity of the estren and the pyrazole was evaluated in calvaria-derived osteoblasts as described in FIG. 1B. * p<0.05 versus cells not treated with etoposide by ANOVA. B. MLO-Y4 cells were incubated for 5, min with the indicated concentrations of the different ligands and ERK phosphorylation was assessed as in FIG. 4A.
DNA constructs. Reporter plasmids carrying the 2.25 Kb of the human IL-6 promoter, 3 copies of the vitellogenin ERE sequences, or the complement 3 promoter driving the firefly luciferase gene (IL-6-luc, ERE-luc, and C3-luc, respectively) were used to assay transcriptional effects of the steroids. The expression plasmids of ER peptide antagonists carrying either αII, or two copies of 293 (2x293) , or two copies of F6 (2xF6) or GRIP fused to the GAL4 DNA binding domain driven by the SV40 promoter have been described previously (Norris, J. D. et al. (1999) Science 285, 744-746). The sequences of the peptides are disclosed in Chang et al. (1999) Mol. Cell. Bio. 19:8226-8239 which is incorporated herein in its entirety. […]

[10] = tested on: retinoid X receptor (RXR); experiment: Etoposide-induced apoptosis in HeLa cells transfected with RXR

T3 sequence (Q92731 whole entry, species assumed, the tested form may be a part): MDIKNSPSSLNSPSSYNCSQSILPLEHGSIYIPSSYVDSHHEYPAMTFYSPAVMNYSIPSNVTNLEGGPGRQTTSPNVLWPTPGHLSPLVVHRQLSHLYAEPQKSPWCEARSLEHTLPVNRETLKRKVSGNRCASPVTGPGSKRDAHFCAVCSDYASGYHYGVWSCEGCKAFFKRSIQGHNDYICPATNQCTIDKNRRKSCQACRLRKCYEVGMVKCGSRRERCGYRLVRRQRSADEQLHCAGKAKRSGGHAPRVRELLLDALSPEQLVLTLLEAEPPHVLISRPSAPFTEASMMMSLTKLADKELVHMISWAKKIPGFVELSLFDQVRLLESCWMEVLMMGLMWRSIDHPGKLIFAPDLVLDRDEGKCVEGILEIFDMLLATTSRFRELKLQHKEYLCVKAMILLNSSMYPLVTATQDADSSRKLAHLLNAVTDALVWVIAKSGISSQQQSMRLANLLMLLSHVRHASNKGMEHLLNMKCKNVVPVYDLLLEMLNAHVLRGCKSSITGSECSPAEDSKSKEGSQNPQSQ

- effect of antagonist/inhibitor on the anti-apoptotic effect of E2 or DHT (ERα [1]; HeLa transfected with ERα): abrogated
- effect of antagonist/inhibitor on the anti-apoptotic effect of E2 or DHT (AR): abrogated
Compound: COc1cccc(-c2cc(=O)c3ccccc3o2)c1N [PD98059]
- effect of inhibitor on anti-apoptotic activity, compared with full length ERα (E domain of the ER): exactly the same effects
- effect of inhibitor on induction of ERK phosphorylation by E2 or DHT (ERK1/2): blocked
- effect of inhibitor on the anti-apoptotic effect of E2 and DHT [2]: completely abrogated

- effect of peptide on E2 effect on IL-6-Luc transcription (ERβ [3]): blocked
- effect of peptide on E2-induced ERE-Luc transcription (ERα [4]): blocked
- effect of peptide on the anti-apoptotic activity of ERα (E2) (ERα [1]; peptide co-transfected, 10^−8 M E2): blocked
- effect of peptide on the anti-apoptotic activity of ERβ (E2) (ERβ [5]): blocked
- effect of peptide on E2-induced decrease in IL-6-Luc transcription (ERα [6]): blocked
- effect of peptide on E2-induced ERE-Luc transcription (ERβ [7]): blocked
Compound: F6: peptide GHEPLTLLERLLMDDKQAV (SEQ ID NO.: 3) interacting with both ERα and ERβ; two copies expressed as GAL4 fusion (also: two copies fused to GAL4 DNA binding domain)

Compound: c1cn[nH]c1 [pyrazole]
- anti-apoptotic efficacy on primary calvaria cells [8]: minimal anti-apoptotic efficacy
- transcriptional activity on the C3 gene (C3-luc) (ERα [9]): potent transcriptional activity

Compound: estren
- anti-apoptotic efficacy on primary calvaria cells [8]: potent anti-apoptotic efficacy
- transcriptional activity on the C3 gene (C3-luc) (ERα [9]): no transcriptional activity

Compound: C=C1/C(=C\C=C2/CCC[C@]3(C)[C@@H]([C@H](C)CCCC(C)(C)O)CC[C@@H]23)C[C@@H](O)C[C@@H]1O [1,25(OH)2D3, 1,25-dihydroxy-Vitamin D3]
- prevention of etoposide-induced apoptosis [10]: prevented apoptosis
